From PubChem BioAssay (NCI)
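Cultured in 96-well plates, cells were exposed to test compound for 48 hours across five concentrations. Definition used: TGI = concentration required for complete inhibition of growth.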

Key:
Assay in all cases: NCI tumour cell line growth inhibition, 48 h
[1] = test system: SNB-78 CNS
[2] = test system: SW-620 colon
[3] = test system: SF-295 CNS
[4] = test system: SNB-19 CNS
[5] = test system: A549 NSCLC
[6] = test system: HCT-116 colon
[7] = test system: MALME-3M melanoma
[8] = test system: NCI-H522 lung
[9] = test system: M14 melanoma
[10] = test system: LXFL 529 NSCLC
[11] = test system: KM20L2 colon
[12] = test system: NCI-H460 lung
[13] = test system: UACC-62 melanoma
[14] = test system: DLD-1 colon
[15] = test system: HCT-15 colon
[16] = test system: IGROV1 ovarian
[17] = test system: NCI-H226 lung
[18] = test system: SF-539 CNS
[19] = test system: TK-10 renal
[20] = test system: RPMI-8226 leukemia
[21] = test system: EKVX NSCLC
[22] = test system: LOX IMVI melanoma
[23] = test system: SK-OV-3 ovarian
[24] = test system: HOP-18 NSCLC
[25] = test system: HOP-92 NSCLC
[26] = test system: COLO 205 colon
[27] = test system: OVCAR-8 ovarian
[28] = test system: A498 renal
[29] = test system: SK-MEL-28 melanoma
[30] = test system: HOP-62 NSCLC
[31] = test system: M19-MEL melanoma
[32] = test system: NCI-H23 lung
[33] = test system: K-562 leukemia
[34] = test system: DMS 114 small cell lung
[35] = test system: OVCAR-4 ovarian
[36] = test system: U251 CNS
[37] = test system: HL-60(TB) leukemia
[38] = test system: KM12 colon
[39] = test system: SK-MEL-2 melanoma
[40] = test system: UACC-257 melanoma
[41] = test system: MOLT-4 leukemia
[42] = test system: RXF 393 renal
[43] = test system: HT29 colon
[44] = test system: HCC-2998 colon
[45] = test system: ACHN renal
[46] = test system: SR leukemia
[47] = test system: CCRF-CEM leukemia
[48] = test system: SN12C renal
[49] = test system: UO-31 renal
[50] = test system: SNB-75 CNS
[51] = test system: DMS 273 small cell lung
[52] = test system: SF-268 CNS
[53] = test system: 786-0 renal
[54] = test system: XF 498 CNS
[55] = test system: RXF-631 renal
[56] = test system: SK-MEL-5 melanoma
[57] = test system: OVCAR-3 ovarian
[58] = test system: OVCAR-5 ovarian
[59] = test system: CAKI-1 renal

Measured: TGI

C=C(C)C1C/C=C(/C)CCCC2(CCC3=C(CC(C(=C)C)C/C=C(/C)CCC3)O2)C(=O)C1 (configuration not stated)
> 100 µM: [1] | [2] | [3] | [4] | [5] | [6] | [7] | [8] | [9] | [10] | [11] | [12] | [13] | [14] | [15] | [16] | [17] | [18] | [19] | [20] | [21] | [22] | [23] | [24] | [25] | [26] | [27] | [28] | [29] | [30] | [31] | [32] | [33] | [34] | [35] | [36] | [37] | [38] | [39] | [40] | [41] | [42] | [43] | [44] | [45] | [46] | [47] | [48] | [49] | [50] | [51] | [52] | [53] | [54]

CCCCN(CCCC)C(=O)/C(CC(=O)c1cccc2ccccc12)=N\NC(=O)c1cc2ccccc2cc1O
77.3 µM: [53]
99.7 µM: [1]
57.7 µM: [43]
39.9 µM: [30]
37.3 µM: [49]
23.3 µM: [13]
80.5 µM: [58]
16.5 µM: [37]
63 µM: [42]
92.7 µM: [3] | [50]
35.4 µM: [7]
42.9 µM: [41]
78.7 µM: [45]
69.8 µM: [9]
35.9 µM: [22]
51.3 µM: [11]
45.6 µM: [32]
71.3 µM: [16]
32 µM: [56]
52.6 µM: [48]
> 100 µM: [2] | [4] | [10] | [14] | [19] | [27] | [29] | [31] | [38]
43.8 µM: [44]
53.3 µM: [57]
88.1 µM: [54]
50.9 µM: [21]
44.2 µM: [12]
21.5 µM: [20]
72.3 µM: [36]
52.8 µM: [40]
70.9 µM: [52]
64.8 µM: [5]
56.8 µM: [25]
70.5 µM: [55] | [35]
45.7 µM: [39]
28 µM: [6]
44.7 µM: [17]
25.3 µM: [47]
56.3 µM: [26]

C/C(=N\NC(=O)CC#N)c1c(O)cc(C)oc1=O
> 100 µM: [1] | [2] | [3] | [4] | [5] | [55] | [59] | [6] | [7] | [9] | [56] | [10] | [11] | [12] | [13] | [14] | [15] | [16] | [17] | [18] | [19] | [21] | [22] | [23] | [24] | [25] | [27] | [28] | [29] | [30] | [31] | [32] | [33] | [35] | [36] | [37] | [38] | [39] | [40] | [41] | [43] | [44] | [45] | [46] | [47] | [48] | [49] | [50] | [52] | [53]

FC(F)(F)c1cc(C2SCc3nc4ccccc4n32)cc(C(F)(F)F)c1 (configuration not stated)
35.6 µM: [54]
> 100 µM: [1] | [3] | [4] | [55] | [59] | [7] | [10] | [11] | [13] | [16] | [17] | [18] | [19] | [23] | [25] | [27] | [28] | [30] | [33] | [35] | [37] | [38] | [40] | [41] | [42] | [58] | [43] | [45] | [47] | [48] | [49] | [51] | [52] | [53]
